Literature values as cited in patent US20160235660A1, “COSMETIC COMPOSITION AND USE THEREOF” (EMS S.A., priority 2015, published 2016).

Test system: facial melasma
Details: hydroquinone 4% vs 0.75% kojic acid cream

Oc1ccc(O)cc1 [hydroquinone, 1,4-dihydroxybenzene]
action in the treatment of melasma compared with kojic acid: superiority
